According to ChEMBL document CHEMBL4507299, “Data for DCP probe PF-04554878” (2021):
Calls of active or inactive are those of the source.

Key:
[1] = test system: Epidermal growth factor receptor (Homo sapiens), P00533 [L861Q]
[2] = test system: Hepatocyte growth factor receptor (Homo sapiens), P08581 [M1250T]
[3] = target: Platelet-derived growth factor receptor alpha (Homo sapiens) (UniProt P16234)
[4] = target: Serine/threonine-protein kinase TAO2 (Homo sapiens) (UniProt Q9UL54)
[5] = target: Dual specificity mitogen-activated protein kinase kinase 6 (Homo sapiens) (UniProt P52564)
[6] = target: Ephrin type-A receptor 7 (Homo sapiens) (UniProt Q15375)
[7] = target: Ephrin type-B receptor 6 (Homo sapiens) (UniProt O15197)
[8] = test system: Mast/stem cell growth factor receptor Kit (Homo sapiens), P10721 [A829P]
[9] = test system: Mast/stem cell growth factor receptor Kit (Homo sapiens), P10721 [D816V]
[10] = target: Serine/threonine-protein kinase PAK 1 (Homo sapiens) (UniProt Q13153)
[11] = target: Death-associated protein kinase 2 (Homo sapiens) (UniProt Q9UIK4)
[12] = target: Activin receptor type-1 (Homo sapiens) (UniProt Q04771)
[13] = target: Hormonally up-regulated neu tumor-associated kinase (Homo sapiens) (UniProt P57058)
[14] = target: Serine/threonine-protein kinase Nek3 (Homo sapiens) (UniProt P51956)
[15] = target: Atypical kinase COQ8B, mitochondrial (Homo sapiens) (UniProt Q96D53)
[16] = test system: Tyrosine-protein kinase ABL1 (Homo sapiens), P00519 [T315I]
[17] = target: Mitogen-activated protein kinase kinase kinase kinase 3 (Homo sapiens) (UniProt Q8IVH8)
[18] = target: Mitogen-activated protein kinase kinase kinase 4 (Homo sapiens) (UniProt Q9Y6R4)
[19] = target: Serine/threonine-protein kinase PLK4 (Homo sapiens) (UniProt O00444)
[20] = test system: Serine/threonine-protein kinase B-raf (Homo sapiens), P15056 [V600E]
[21] = target: STE20-like serine/threonine-protein kinase (Homo sapiens) (UniProt Q9H2G2)
[22] = target: BDNF/NT-3 growth factors receptor (Homo sapiens) (UniProt Q16620)
[23] = target: 5-hydroxytryptamine receptor 5A (Homo sapiens) (UniProt P47898); conditions: Compound concentration 10.0 uM
[24] = target: Calcium/calmodulin-dependent protein kinase type II subunit gamma (Homo sapiens) (UniProt Q13555)
[25] = target: Protein-tyrosine kinase 2-beta (Homo sapiens, UniProt Q14289); assay: Binding assay (PTK2B)
[26] = target: Tyrosine-protein kinase BTK (Homo sapiens) (UniProt Q06187)
[27] = target: Phosphatidylinositol 3-kinase catalytic subunit type 3 (Homo sapiens) (UniProt Q8NEB9)
[28] = target: Serine/threonine-protein kinase RIO2 (Homo sapiens) (UniProt Q9BVS4)
[29] = target: Tyrosine-protein kinase JAK1 (Homo sapiens) (UniProt P23458)
[30] = target: RAC-gamma serine/threonine-protein kinase (Homo sapiens) (UniProt Q9Y243)
[31] = target: Serine/threonine-protein kinase Sgk3 (Homo sapiens) (UniProt Q96BR1)
[32] = target: Calcium/calmodulin-dependent protein kinase type 1D (Homo sapiens) (UniProt Q8IU85)
[33] = target: Mitogen-activated protein kinase 9 (Homo sapiens) (UniProt P45984)
[34] = target: Alpha-2B adrenergic receptor (Homo sapiens) (UniProt P18089); conditions: Compound concentration 10.0 uM
[35] = test system: Hepatocyte growth factor receptor (Homo sapiens), P08581 [Y1235D]
[36] = target: Rho-associated protein kinase 2 (Homo sapiens) (UniProt O75116)
[37] = test system: Tyrosine-protein kinase ABL1 (Homo sapiens), P00519 [Y253F]
[38] = target: Dual specificity protein kinase CLK2 (Homo sapiens) (UniProt P49760)
[39] = target: Activin receptor type-1B (Homo sapiens) (UniProt P36896)
[40] = target: Tyrosine-protein kinase Yes (Homo sapiens) (UniProt P07947)
[41] = target: Dual specificity mitogen-activated protein kinase kinase 2 (Homo sapiens) (UniProt P36507)
[42] = target: Tyrosine-protein kinase CSK (Homo sapiens) (UniProt P41240)
[43] = target: Receptor-interacting serine/threonine-protein kinase 1 (Homo sapiens) (UniProt Q13546)
[44] = target: Hepatocyte growth factor receptor (Homo sapiens) (UniProt P08581)
[45] = target: Vascular endothelial growth factor receptor 3 (Homo sapiens) (UniProt P35916)
[46] = Compound concentration 100.0 nM
[47] = Compound concentration 1000.0 nM

Chain of Dual specificity mitogen-activated protein kinase kinase 6 (Homo sapiens) (P52564 whole entry): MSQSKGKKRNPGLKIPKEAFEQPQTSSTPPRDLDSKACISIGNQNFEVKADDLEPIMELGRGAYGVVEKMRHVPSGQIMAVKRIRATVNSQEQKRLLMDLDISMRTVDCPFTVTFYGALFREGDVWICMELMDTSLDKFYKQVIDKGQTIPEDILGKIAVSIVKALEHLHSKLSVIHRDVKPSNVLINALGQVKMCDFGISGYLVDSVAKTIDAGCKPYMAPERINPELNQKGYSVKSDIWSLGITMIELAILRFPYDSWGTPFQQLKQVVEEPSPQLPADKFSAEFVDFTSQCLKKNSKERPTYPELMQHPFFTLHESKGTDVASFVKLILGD
Chain of Serine/threonine-protein kinase RIO2 (Homo sapiens) (Q9BVS4 whole entry, looked up): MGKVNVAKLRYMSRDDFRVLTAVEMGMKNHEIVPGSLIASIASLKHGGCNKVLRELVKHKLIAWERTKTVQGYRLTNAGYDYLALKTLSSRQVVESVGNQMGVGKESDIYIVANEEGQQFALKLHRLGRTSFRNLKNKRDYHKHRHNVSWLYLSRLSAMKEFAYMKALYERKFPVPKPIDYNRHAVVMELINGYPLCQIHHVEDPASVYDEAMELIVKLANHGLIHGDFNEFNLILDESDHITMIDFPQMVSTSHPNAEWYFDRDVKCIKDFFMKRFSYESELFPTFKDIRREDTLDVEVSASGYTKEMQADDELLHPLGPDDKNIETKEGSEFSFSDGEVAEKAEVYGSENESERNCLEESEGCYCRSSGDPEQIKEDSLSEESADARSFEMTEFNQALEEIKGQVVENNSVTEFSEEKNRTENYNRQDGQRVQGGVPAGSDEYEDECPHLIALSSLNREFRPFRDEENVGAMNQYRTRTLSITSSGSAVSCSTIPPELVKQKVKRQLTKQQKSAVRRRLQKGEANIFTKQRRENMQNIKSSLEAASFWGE
Chain of Mitogen-activated protein kinase kinase kinase kinase 3 (Homo sapiens) (Q8IVH8 whole entry): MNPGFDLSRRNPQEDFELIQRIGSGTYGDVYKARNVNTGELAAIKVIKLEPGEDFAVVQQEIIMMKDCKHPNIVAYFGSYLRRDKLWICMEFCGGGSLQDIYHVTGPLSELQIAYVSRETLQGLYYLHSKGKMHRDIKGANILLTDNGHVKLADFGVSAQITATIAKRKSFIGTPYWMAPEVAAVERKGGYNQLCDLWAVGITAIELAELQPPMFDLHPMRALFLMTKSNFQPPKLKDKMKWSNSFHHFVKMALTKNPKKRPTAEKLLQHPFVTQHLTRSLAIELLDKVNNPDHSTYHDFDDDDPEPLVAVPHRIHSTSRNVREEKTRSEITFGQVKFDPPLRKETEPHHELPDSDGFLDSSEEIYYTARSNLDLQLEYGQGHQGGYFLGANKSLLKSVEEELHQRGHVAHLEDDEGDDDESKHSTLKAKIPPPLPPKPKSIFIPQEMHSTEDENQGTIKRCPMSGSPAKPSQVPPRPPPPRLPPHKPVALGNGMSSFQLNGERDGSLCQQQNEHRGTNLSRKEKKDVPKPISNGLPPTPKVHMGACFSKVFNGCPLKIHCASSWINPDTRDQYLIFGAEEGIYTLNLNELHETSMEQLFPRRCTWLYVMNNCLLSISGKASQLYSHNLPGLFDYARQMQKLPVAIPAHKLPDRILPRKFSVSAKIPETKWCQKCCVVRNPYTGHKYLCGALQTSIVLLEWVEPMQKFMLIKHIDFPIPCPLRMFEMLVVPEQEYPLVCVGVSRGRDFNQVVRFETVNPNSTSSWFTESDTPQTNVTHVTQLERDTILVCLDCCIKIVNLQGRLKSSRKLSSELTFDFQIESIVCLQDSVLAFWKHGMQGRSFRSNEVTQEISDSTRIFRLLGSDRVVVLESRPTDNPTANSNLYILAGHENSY
Chain of Serine/threonine-protein kinase PAK 1 (Homo sapiens) (Q13153 whole entry): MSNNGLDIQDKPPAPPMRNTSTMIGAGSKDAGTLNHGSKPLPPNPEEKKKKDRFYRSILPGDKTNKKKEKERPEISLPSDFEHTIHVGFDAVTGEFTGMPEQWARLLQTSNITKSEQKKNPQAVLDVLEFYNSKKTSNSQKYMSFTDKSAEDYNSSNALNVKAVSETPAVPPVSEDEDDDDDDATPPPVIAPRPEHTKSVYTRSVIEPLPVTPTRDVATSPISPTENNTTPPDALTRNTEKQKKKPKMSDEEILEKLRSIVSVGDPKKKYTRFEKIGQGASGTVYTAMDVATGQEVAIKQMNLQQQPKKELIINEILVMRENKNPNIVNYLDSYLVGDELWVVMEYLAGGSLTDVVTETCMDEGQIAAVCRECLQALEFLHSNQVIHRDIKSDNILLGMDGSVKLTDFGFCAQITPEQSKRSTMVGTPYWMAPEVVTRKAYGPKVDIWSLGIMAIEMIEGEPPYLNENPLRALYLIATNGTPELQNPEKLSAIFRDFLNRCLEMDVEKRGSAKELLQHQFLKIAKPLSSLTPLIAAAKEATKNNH
Chain of Alpha-2B adrenergic receptor (Homo sapiens) (P18089 whole entry): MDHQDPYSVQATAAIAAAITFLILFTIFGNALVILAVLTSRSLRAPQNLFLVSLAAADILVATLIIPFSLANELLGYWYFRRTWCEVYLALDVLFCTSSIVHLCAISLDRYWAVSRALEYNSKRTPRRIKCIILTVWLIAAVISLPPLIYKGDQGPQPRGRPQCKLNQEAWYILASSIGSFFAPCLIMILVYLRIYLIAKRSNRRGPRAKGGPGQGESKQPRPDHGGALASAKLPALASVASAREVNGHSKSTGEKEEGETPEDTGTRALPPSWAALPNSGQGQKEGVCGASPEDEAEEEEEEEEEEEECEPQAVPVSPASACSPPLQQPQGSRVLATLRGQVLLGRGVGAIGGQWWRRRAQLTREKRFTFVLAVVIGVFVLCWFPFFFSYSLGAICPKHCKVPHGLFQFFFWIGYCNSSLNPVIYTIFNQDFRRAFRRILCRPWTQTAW
Chain of Platelet-derived growth factor receptor alpha (Homo sapiens) (P16234 whole entry): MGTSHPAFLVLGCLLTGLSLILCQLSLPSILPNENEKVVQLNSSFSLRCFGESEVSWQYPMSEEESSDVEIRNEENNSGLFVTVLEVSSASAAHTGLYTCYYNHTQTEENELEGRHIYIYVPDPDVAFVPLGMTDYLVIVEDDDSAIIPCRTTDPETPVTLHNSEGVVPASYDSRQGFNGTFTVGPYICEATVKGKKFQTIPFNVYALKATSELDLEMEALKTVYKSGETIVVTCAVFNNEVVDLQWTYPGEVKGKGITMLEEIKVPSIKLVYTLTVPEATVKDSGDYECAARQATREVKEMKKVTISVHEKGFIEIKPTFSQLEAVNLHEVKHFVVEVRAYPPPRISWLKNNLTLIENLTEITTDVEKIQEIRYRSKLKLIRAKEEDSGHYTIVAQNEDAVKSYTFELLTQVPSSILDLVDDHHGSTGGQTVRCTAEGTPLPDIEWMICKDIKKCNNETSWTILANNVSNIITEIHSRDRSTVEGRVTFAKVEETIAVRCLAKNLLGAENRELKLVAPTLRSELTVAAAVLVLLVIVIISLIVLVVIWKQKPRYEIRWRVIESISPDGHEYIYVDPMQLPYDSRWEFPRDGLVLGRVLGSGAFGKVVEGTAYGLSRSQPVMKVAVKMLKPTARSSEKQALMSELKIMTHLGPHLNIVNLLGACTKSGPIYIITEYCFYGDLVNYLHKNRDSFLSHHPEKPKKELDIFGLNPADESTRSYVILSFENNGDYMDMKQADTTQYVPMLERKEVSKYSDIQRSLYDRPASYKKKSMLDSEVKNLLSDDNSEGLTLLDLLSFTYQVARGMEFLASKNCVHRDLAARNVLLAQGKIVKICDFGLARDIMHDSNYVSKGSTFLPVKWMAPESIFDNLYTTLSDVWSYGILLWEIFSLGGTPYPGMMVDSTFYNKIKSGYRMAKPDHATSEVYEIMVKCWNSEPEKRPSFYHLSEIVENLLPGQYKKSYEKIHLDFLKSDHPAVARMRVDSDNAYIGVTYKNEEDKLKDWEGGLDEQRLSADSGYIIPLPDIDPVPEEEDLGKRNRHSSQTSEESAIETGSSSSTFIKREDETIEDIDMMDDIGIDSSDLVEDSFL
Chain of Hormonally up-regulated neu tumor-associated kinase (Homo sapiens) (P57058 whole entry): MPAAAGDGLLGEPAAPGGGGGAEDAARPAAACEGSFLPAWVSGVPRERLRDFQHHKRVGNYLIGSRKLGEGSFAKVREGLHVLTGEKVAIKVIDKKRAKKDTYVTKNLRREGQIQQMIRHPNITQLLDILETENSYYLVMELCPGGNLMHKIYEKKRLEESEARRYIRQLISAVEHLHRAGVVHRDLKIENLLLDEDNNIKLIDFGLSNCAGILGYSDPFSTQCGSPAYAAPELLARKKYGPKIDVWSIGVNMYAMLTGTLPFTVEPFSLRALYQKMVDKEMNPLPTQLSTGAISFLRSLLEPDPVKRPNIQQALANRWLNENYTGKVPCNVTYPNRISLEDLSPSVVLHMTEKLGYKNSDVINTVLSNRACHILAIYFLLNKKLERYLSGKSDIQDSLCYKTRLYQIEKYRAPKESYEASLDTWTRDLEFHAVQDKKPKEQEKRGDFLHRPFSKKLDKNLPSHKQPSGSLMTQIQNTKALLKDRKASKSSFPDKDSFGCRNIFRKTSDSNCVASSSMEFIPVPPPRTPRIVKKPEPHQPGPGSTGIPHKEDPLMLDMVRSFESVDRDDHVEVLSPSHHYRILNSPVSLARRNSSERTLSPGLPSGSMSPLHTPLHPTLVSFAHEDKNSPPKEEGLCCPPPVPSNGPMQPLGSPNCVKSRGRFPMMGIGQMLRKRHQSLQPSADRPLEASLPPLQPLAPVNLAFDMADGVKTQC
Chain of 5-hydroxytryptamine receptor 5A (Homo sapiens) (P47898 whole entry): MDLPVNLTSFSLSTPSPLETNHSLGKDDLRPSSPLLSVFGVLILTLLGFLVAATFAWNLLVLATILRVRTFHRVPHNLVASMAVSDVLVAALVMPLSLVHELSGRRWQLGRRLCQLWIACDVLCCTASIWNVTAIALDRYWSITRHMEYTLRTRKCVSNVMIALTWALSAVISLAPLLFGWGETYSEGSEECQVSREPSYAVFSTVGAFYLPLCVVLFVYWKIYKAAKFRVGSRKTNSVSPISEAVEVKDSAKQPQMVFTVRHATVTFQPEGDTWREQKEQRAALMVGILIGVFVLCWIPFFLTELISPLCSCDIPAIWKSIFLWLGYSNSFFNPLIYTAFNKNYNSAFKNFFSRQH

CNC(=O)c1ccc(Nc2ncc(C(F)(F)F)c(NCc3nccnc3N(C)S(C)(=O)=O)n2)cc1 [DEFACTINIB]
inactive: residual activity [1, 46] 100% | residual activity [2, 46] 63% | residual activity [3, 46] 77% | residual activity [4, 46] 92% | residual activity [5, 46] 77% | residual activity [6, 46] 68% | residual activity [7, 46] 100% | residual activity [8, 46] 85% | residual activity [9, 46] 80% | residual activity [10, 46] 75% | residual activity [11, 46] 68% | residual activity [12, 46] 100% | residual activity [13, 46] 100% | residual activity [14, 46] 100% | residual activity [15, 46] 88% | residual activity [16, 46] 93% | residual activity [17, 46] 95% | residual activity [18, 46] 100% | residual activity [19, 46] 79% | residual activity [20, 46] 100% | residual activity [21, 46] 53% | inhibition [23] -1.91% | residual activity [24, 46] 79% | residual activity [26, 46] 83% | residual activity [27, 46] 100% | residual activity [28, 46] 85% | residual activity [31, 46] 85% | residual activity [32, 46] 100% | residual activity [33, 46] 95% | inhibition [34] 5.76% | residual activity [35, 46] 71% | residual activity [36, 46] 100% | residual activity [37, 46] 100% | residual activity [39, 46] 69% | residual activity [40, 46] 100% | residual activity [41, 46] 100% | residual activity [42, 46] 100% | residual activity [43, 46] 100% | residual activity [44, 46] 66%
active: residual activity [22, 46] 21% | IC50 [25] 0.2 nM | residual activity [29, 46] 29% | residual activity [30, 46] 36% | residual activity [38, 46] 0% | residual activity [45, 46] 39%

CN(c1ccnc(CNc2nc(Nc3ccc4c(c3)CC(=O)N4)ncc2C(F)(F)F)n1)S(C)(=O)=O [PF-00911705]
inactive: residual activity [1, 47] 70% | residual activity [3, 47] 58% | residual activity [4, 47] 58% | residual activity [5, 47] 83% | residual activity [6, 47] 87% | residual activity [7, 47] 54% | residual activity [10, 47] 73% | residual activity [11, 47] 58% | residual activity [12, 47] 91% | residual activity [13, 47] 100% | residual activity [14, 47] 60% | residual activity [15, 47] 84% | residual activity [17, 47] 87% | residual activity [18, 47] 91% | residual activity [19, 47] 50% | residual activity [20, 47] 68% | inhibition [23] 1.82% | residual activity [24, 47] 100% | residual activity [26, 47] 63% | residual activity [27, 47] 84% | residual activity [28, 47] 81% | residual activity [30, 47] 100% | residual activity [31, 47] 87% | residual activity [32, 47] 79% | residual activity [33, 47] 79% | inhibition [34] -4.21% | residual activity [36, 47] 69% | residual activity [40, 47] 77% | residual activity [41, 47] 82% | residual activity [42, 47] 74% | residual activity [43, 47] 100% | residual activity [45, 47] 92%
721 nM (not active): IC50 [25]
active: residual activity [2, 47] 6.8% | residual activity [8, 47] 46% | residual activity [9, 47] 28% | residual activity [16, 47] 36% | residual activity [21, 47] 41% | residual activity [22, 47] 21% | residual activity [29, 47] 20% | residual activity [35, 47] 10% | residual activity [37, 47] 45% | residual activity [38, 47] 0% | residual activity [39, 47] 26% | residual activity [44, 47] 14%
